{"source": "patent US20040220411A1", "about": "“Oxalic acid derivatives” (priority 2001, published 2004)", "data": [{"target": "factor Xa (Homo sapiens, UniProt P00742)", "sequence (P00742 235-488 limits assumed)": "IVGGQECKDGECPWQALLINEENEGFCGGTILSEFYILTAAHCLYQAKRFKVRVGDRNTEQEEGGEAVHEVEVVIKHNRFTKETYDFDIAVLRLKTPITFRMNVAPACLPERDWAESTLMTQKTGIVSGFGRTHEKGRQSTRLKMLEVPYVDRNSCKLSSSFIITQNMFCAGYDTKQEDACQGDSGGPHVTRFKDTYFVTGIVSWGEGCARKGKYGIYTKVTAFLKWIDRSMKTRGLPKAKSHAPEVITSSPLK", "sequence (P00742 41-179 partner limits assumed)": "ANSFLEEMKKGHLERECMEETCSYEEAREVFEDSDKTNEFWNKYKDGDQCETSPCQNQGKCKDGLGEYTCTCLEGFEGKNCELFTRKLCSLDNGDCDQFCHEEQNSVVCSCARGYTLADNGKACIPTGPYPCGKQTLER", "test": "Inhibition of factor Xa", "format": "biochemical", "settings": "Affinity to receptors", "excerpt": "The inhibition of factor Xa by the compounds according to the invention and the measurement of the anticoagulant and antithrombotic activity can be determined by conventional in-vitro or in-vivo methods. A suitable method is described, for example, by J. Hauptmann et al. in Thrombosis and Haemostasis 1990, 63, 220-223.\nThe inhibition of factor Xa can be measured, for example by the method of T. Hara et al. in Thromb. Haemostas. 1994, 71, 314-319.", "units": {"IC50": "nM"}, "values": [{"smiles": "COC(=O)NC(=N)c1cccc(CN(CC(C)C)C(=O)C(=O)Nc2ccc(-c3ccccc3S(C)(=O)=O)cc2)c1", "note": "[Example 4, Methyl [imino-(3-{[isobutyl-(2′-methanesulfonylbiphenyl-4-ylaminooxalyl)amino]methyl}phenyl)methyl]carbamate]", "IC50": 3500}, {"smiles": "CC(C)CN(Cc1cccc(C(=N)N)c1)C(=O)C(=O)Nc1ccc(-c2ccc(CN)cc2)cc1", "note": "[Example 6, N-(4′-Aminomethylbiphenyl-4-yl)-N′-(3-amidinobenzyl)-N′-isobutyloxalamide]", "IC50": 1500}, {"smiles": "CC(C)CN(Cc1cccc(C(=O)O)c1)C(=O)C(=O)Nc1ccc(-c2ccccc2S(N)(=O)=O)cc1", "note": "[Example 7, 3-{[Isobutyl-(2′-sulfamoylbiphenyl-4-ylaminooxalyl)amino]methyl}benzoic acid]", "IC50": 6000}, {"smiles": "CC(C)CN(Cc1cccc(C(=N)N)c1)C(=O)C(=O)Nc1ccc(-c2ccccc2S(C)(=O)=O)cc1", "note": "[Example 3, N-(3-amidinobenzyl)-N-isobutyl-N′-(2′-methanesulfonylbiphenyl-4-yl)oxalamide]", "IC50": 9.6}, {"smiles": "CC(C)CN(Cc1cccc(C(=N)N)c1)C(=O)C(=O)Nc1ccc(-c2ccccc2S(=O)(=O)NC(C)(C)C)cc1", "note": "[Example 1g, N-(2′-tert-butylsulfamoylbiphenyl-4-yl)-N′-(3-amidinobenzyl)-N′-isobutyloxalamide]", "IC50": 300}, {"smiles": "CC(C)CN(Cc1cccc(C(=N)N)c1)C(=O)C(=O)Nc1ccc(-c2ccccc2S(N)(=O)=O)cc1", "note": "[Example 1, N-(3-amidinobenzyl)-N-isobutyl-N′-(2′-sulfamoylbiphenyl-4-yl)oxalamide]", "IC50": 10}, {"smiles": "CC(C)CN(Cc1cccc(C(=N)N)c1)C(=O)C(=O)Nc1ccc(-c2ccc(C(=N)N)cc2)cc1", "note": "[Example 5, N-(3-amidinobenzyl)-N′-(4′-amidinobiphenyl-4-yl)-N-isobutyloxalamide]", "IC50": 1000}]}]}
